How the values were obtained:
[1] = Acid stability in 0.1 M HCl (absorption spectra); format: physicochemical; conditions: 0.1 M HCl over 24 h
Method: To examine the stability of compound 8 towards acid hydrolysis, the absorption spectra of a 0.05 mM solution of 8 in a 0.1 M aqueous solution of HCl was collected. Spectra were collected at room temperature every hour for a 24 h time period. No change in the spectra was observed (FIG. 11).

[2] = target: T1, MMP-9 (catalytic domain, human, recombinant) (Homo sapiens, UniProt P14780); assay: MMP-9 fluorescence-based inhibition assay with and without β-glucosidase; format: biochemical
T1 construct: MMP-9 (catalytic domain, human, recombinant); purchased BIOMOL International
Method: MMP-9 (catalytic domain, human, recombinant), MMP-8 (catalytic domain, human, recombinant), and the assay kit were purchased from BIOMOL International. The assays were carried out according to the procedure provided with the kit. MMP activity was measured in 96-well plates using a Bio-Tek Flx 800 fluorescent plate reader. The ZBGs and their protected analogs were dissolved in DMSO and diluted in HEPES buffer (50 mM, pH 7.5) to a concentration of 10 mM for 1-2, 40 mM for 3-4, and 1.25 mM for 5-6. Each well contained 20 μL, of MMP-9 (0.45 U/mL), inhibitor (10 μL, of 1-6), 5 μL, of β-glucosidase (1 U/μL) when used, and buffer for a total volume of 99 μL. These were incubated for 1 h at 37° C. […] The reaction was initiated by the addition of 1 μL (400 μM) of the fluorescent substrate (Mca-Pro-Leu-Gly-Leu-Dpa-Ala-Arg-NH2 where Mca=(7-methoxycoumarin-4-yl)-acetyl and Dpa=N-3-(2,4-dinitrophenyl)-L-α-β-diaminopropionyl)) and kinetic activity was measured every minute for 30 min with excitation and emission wavelengths at 335 nm and 405 nm, respectively. Enzyme activity with inhibitor was calculated with respect to the control experiment (no inhibitor present). Measurements were performed in duplicate in two independent experiments.
For Cmpds 7 and 8, 1 mL sample in HEPES buffer at a concentration of 1 mM was incubated at 37° C. with 250 U of β-glucosidase (1 U/μL) for 4 h giving a final concentration of 0.8 mM of the inhibitor. After 4 h, a 200 μL aliquot was collected and filtered through a microcentrifuge filter. UV-Vis absorption spectroscopy was to verify that the concentration of 1,2-HOPO-2 was 0.71±0.2 mM in each of the samples using the extinction coefficient for 1,2-HOPO-2 (7) calculated at 346 nm (4,279.3±372 M-1 cm-1). Each well was made up with 20 μL of MMP-9 (0.45 U/mL), inhibitor (2 μL, for 7 and 8), and buffer for a total volume of 99 μL. These were incubated for 30 min at 37° C. For MMP-8 inhibition assays, each of the samples was diluted to 1 μM in HEPES buffer and 15 μL of each were added to 20 μL of MMP-8 (0.092 U/mL) and buffer for a total of 99 μL. The reaction was initiated by the addition of 1 μL (400 μM) of the fluorescent substrate and kinetic activity was measured every minute for 30 min with excitation and emission wavelengths at 335 nm and 405 nm, respectively. Enzyme activity with inhibitor was calculated with respect to the control experiment (no inhibitor present). A control sample was also performed, in which an aliquot of 250 U of β-glucosidase (1 U/μL) with 1 mL of HEPES buffer was incubated for 4 h at 37° C., filtered through a microcentrifuge filter, and evaluated in the MMP assay to confirm that no inhibition is observed with β-glucosidase. Measurements were performed in duplicate in two independent experiments. […]

T1 sequence (P14780 107-444 limits assumed): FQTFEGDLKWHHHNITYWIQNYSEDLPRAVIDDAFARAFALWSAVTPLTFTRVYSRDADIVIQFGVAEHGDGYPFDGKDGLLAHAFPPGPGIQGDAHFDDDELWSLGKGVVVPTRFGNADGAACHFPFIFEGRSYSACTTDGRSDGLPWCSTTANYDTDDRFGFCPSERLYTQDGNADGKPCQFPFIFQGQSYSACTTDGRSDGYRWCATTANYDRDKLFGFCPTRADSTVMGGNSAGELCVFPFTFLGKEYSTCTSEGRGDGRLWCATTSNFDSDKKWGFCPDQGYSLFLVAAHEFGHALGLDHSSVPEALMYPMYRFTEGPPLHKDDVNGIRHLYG

cleavage under acidic conditions [1]: not cleaved | inhibition at 16 µM ([2]; 16 μM, read-out: MMP-9 activity inhibited upon activation with β-glucosidase): 73% | inhibition of MMP-9 in the absence of β-glucosidase ([2]; 1 mM for 2, 4 mM for 4, 125 μM for 6, 16 μM for 8): very little inhibition
Structure (SMILES): O=C(NCc1ccc(-c2ccccc2)cc1)c1cccc(=O)n1O[C@@H]1O[C@H](CO)[C@@H](O)[C@H](O)[C@H]1O [Compound 8, N-(Biphenyl-4-ylmethyl)-6-oxo-1-(β-D-glucopyranosyloxy)-1,6-dihydropyridine-2-carboxamide]

— US8889638B2, “Stimulus-triggered prodrugs” (The Regents of the University of California, priority 2010, dated 2014)
